For 13 molecules, inhibition and IC50 results are on record in ChEMBL document CHEMBL1143555, “Development of low molecular weight HIV-1 protease dimerization inhibitors” (J Med Chem, 2005).

By inhibition is commonly meant the share of the control response that was lost under treatment. Higher therefore signals a strong effect. By IC50 is commonly meant the concentration at which inhibition is half-maximal.

The first test has as its target Human immunodeficiency virus type 1 protease (Human immunodeficiency virus 1) (UniProt Q72874). Nature of the test: Percent inhibition of human immunodeficiency virus-1 protease after 1 uM treatment.
On to `CC[C@H](C)[C@@H](NC(=O)C(C)(C)NC(=O)CCCCCCCCCCCCCCC(=O)N[C@H](CC(=O)N[C@@H](Cc1ccccc1)C(=O)O)C(N)=O)C(=O)N[C@@H](Cc1ccccc1)C(N)=O`, for which the inhibition turned out to be 7%.

`CCCC(NC(=O)CCCCCCCCCCCCCCC(=O)N[C@H](CC(=O)N[C@@H](Cc1ccccc1)C(=O)O)C(N)=O)C(=O)N[C@@H](C(=O)N[C@@H](Cc1ccccc1)C(N)=O)[C@@H](C)CC` (stereo partly drawn) yielded an inhibition of 14%.

Regarding `CC[C@H](C)[C@@H](NC(=O)C(CC1CCCC1)NC(=O)CCCCCCCCCCCCCCC(=O)N[C@H](CC(=O)N[C@@H](Cc1ccccc1)C(=O)O)C(N)=O)C(=O)N[C@@H](Cc1ccccc1)C(N)=O` (stereo partly drawn), the inhibition stood at 13%.

Molecule `CC(O)[C@H](NC(=O)CCCCCCCCCCCCCCC(=O)N[C@H](CC(=O)N[C@@H](Cc1ccccc1)C(=O)O)C(N)=O)C(=O)N[C@@H](C(=O)N[C@@H](Cc1ccccc1)C(N)=O)C1CCCCC1` (stereo partly drawn) returned an inhibition of 45%.

As for `CC[C@H](C)[C@@H](NC(=O)CCCCNC(=O)CCCCCCCCCCCCCCC(=O)N[C@H](CC(=O)N[C@@H](Cc1ccccc1)C(=O)O)C(N)=O)C(=O)N[C@@H](Cc1ccccc1)C(N)=O`, the inhibition was 12%.

For `CC(O)[C@H](NC(=O)CCCCCCCCCCCCCCC(=O)N[C@H](CC(=O)N[C@@H](Cc1ccccc1)C(=O)O)C(N)=O)C(=O)N[C@H](CC1CCCCC1)C(=O)N[C@@H](Cc1ccccc1)C(N)=O` (stereo partly drawn), the inhibition was determined as 30%.

Molecule `CC[C@H](C)[C@@H](NC(=O)C(CC1CC1)NC(=O)CCCCCCCCCCCCCCC(=O)N[C@H](CC(=O)N[C@@H](Cc1ccccc1)C(=O)O)C(N)=O)C(=O)N[C@@H](Cc1ccccc1)C(N)=O` (stereo partly drawn) came in with an inhibition of 32%.

In the case of `CCC(C)[C@@H](NC(=O)[C@@H](NC(=O)CCCCCCCCCCCCCCC(=O)N[C@H](CC(=O)N[C@@H](Cc1ccccc1)C(=O)O)C(N)=O)C(C)O)C(=O)NC(CC1CC1)C(N)=O` (stereo partly drawn), the inhibition is 21%.

Consider `CCC(C)[C@@H](NC(=O)[C@@H](NC(=O)CCCCCCCCCCCCCCC(=O)N[C@H](CC(=O)N[C@@H](Cc1ccccc1)C(=O)O)C(N)=O)C(C)O)C(=O)NC(CO)C(N)=O` (stereo partly drawn), for which the inhibition came to 8%.

`CCC(C)[C@@H](NC(=O)[C@@H](NC(=O)CCCCCCCCCCCCCCC(=O)N[C@H](CC(=O)N[C@@H](Cc1ccccc1)C(=O)O)C(N)=O)C(C)O)C(=O)Nc1ccc(C(N)=O)cc1` (stereo partly drawn) returned an inhibition of 36%.

`CCC(C)[C@@H](NC(=O)[C@@H](NC(=O)CCCCCCCCCCCCCCC(=O)N[C@H](CC(=O)N[C@@H](Cc1ccccc1)C(=O)O)C(N)=O)C(C)O)C(=O)NC(C(N)=O)c1ccccc1` (stereo partly drawn) returned an inhibition of 29%.

The molecule `CCC(C)[C@H](NC(=O)CCCCCCCCCCCCCCC(=O)N[C@@H](CC(N)=O)C(=O)NC(Cc1ccc(O)cc1)C(=O)O)C(=O)N[C@H](Cc1ccccc1)C(N)=O` (stereo partly drawn) came in with an inhibition of 15%.

For the next test, the target named is Human immunodeficiency virus type 1 protease (Human immunodeficiency virus 1, UniProt Q72874). Nature of the test: Inhibitory concentration against human immunodeficiency virus-1 protease; (competitive inhibitor).
`CC(O)[C@H](NC(=O)CCCCCCCCCCCCCCC(=O)N[C@H](CC(=O)N[C@@H](Cc1ccccc1)C(=O)O)C(N)=O)C(=O)N[C@@H](Cc1ccccc1)C(N)=O` (stereo partly drawn) returned an IC50 of 11 µM.
